In patent US9371337B2, “β-lactamase inhibitors” (The Regents of the University of California, priority 2011, dated 2016):
Like-named read-outs stand apart in the source and are kept apart here.

Experiments:
cruzain = cruzain (Trypanosoma cruzi, UniProt P25779); assay: Cruzain inhibition, Z-FR-AMC cleavage; format: biochemical
Procedure: Cruzain assays were performed in 100 mM sodium acetate pH 5.5 with 0.01% Triton-X and 5 mM dithiothreitol. Cruzain activity was measured in a 96-well format fluorimetric assay, monitoring the cleavage of the substrate Z-Phe-Arg-aminomethylcoumarin (Z-FR-AMC), in a SpectraMax M5, Molecular Devices spectrofluorimeter.

[1] = tested on: C. freundii overproducing chromosomally-mediated class C β-lactamase; assay: MIC of third-generation cephalosporins alone and with compounds 4 or 9 (Table 3); format: cell-based, Citrobacter freundii; conditions: ratio 1:1
From the text: (§1) Antimicrobial activity was investigated quantitatively to determine the minimum inhibitory concentrations (MICs) of the β-lactam/inhibitor combination necessary to inhibit the bacterial growth (Table 3). The MICs of β-lactams alone against the strains corresponded to a high level of resistance according to Clinical and Laboratory Standards Institute (CLSI) standards. (Clinical and Laboratory Standards Institute, Performance standards for antimicrobial susceptibility testing, 20th Informational Supplement, M100-S20 2010) The compounds had no measurable antibiotic activity when used alone.
(§2) Susceptibility testing was performed and interpreted following the guidelines of CLSI. (Clinical and Laboratory Standards Institute, Performance standards for antimicrobial susceptibility testing, 20th Informational Supplement, M100-S20 2010) The compounds were dissolved in 50% DMSO, and dilutions were performed using Muller-Hinton medium. An adequate final concentration was obtained to determine the minimum inhibitory concentrations (MICs). The concentration of DMSO was maintained below 5%. The inhibitors were tested for synergy with the third-generation β-lactams ceftazidime and cefotaxime against several clinical bacteria. […] Each value reported reflects the average of three independent experiments. […] A Klebsiella pneumoniae isolate produced the inducible plasmid-mediated class C enzyme DHA-1. The Friedman's test and the Wilcoxon signed rank test were used to compare MIC values. Statistical significance was established at p<0.05.

[2] = tested on: Klebsiella pneumoniae strain producing AmpC β-lactamase; assay: Disk diffusion plate assay; format: cell-based; conditions: for inhibition of bacterial growth in combination with ceftazidime: disk with ceftazidime (30 μg) and inhibitor (30 μg); for activity on bacteria growth, compound alone: disk with inhibitor alone (30 μg)
From the text: (§3) FIG. 9. Inhibition of bacterial growth and potentiation effect. A) Activity of compounds 4 (CP4) and 9 (CP9) in combination with ceftazidime (CAZ) and alone against a Klebsiella pneumoniae strain producing AmpC β-lactamase. Solvent (SOL):DMSO/Water 1:1. B) Potentiation of β-lactamase inhibition in an E. cloacae strain in which ampC gene expression is inducible by β-lactam antibiotics, such as cefoxitin (FOX). C) Potentiation of β-lactamase inhibition in a Klebsiella pneumoniae isolate producing the inducible class C enzyme DHA-1.
For disk diffusion plate assays, bacterial strains were diluted in sterile water to a turbidity equivalent to 0.5 McFarland turbidity standards. After a subsequent 10-fold dilution, the bacterial suspensions were inoculated on Mueller Hinton agar. The plates were dried for 10 min before applying the disks containing cefotaxime or ceftazidime antibiotics (30 μg) or the inhibitor (30 μg) or both. After overnight incubation at 37° C., the zones of bacterial-growth inhibition were measured.

[3] = tested on: E. coli overproducing chromosomally-mediated class C β-lactamase; assay: MIC of third-generation cephalosporins alone and with compounds 4 or 9 (Table 3); format: cell-based, Escherichia coli; conditions: ratio 1:1
From the text: as §1, §2

[4] = tested on: E. coli producing plasmid-mediated class A β-lactamase CTX-M-14; assay: as above; format: cell-based, Escherichia coli; conditions: ratio 1:1
From the text: as §1, §2

[5] = biological target: T1, α-chymotrypsin (bovine pancreatic) (Bos taurus, UniProt P00766); assay: α-Chymotrypsin inhibition; format: biochemical
T1 construct: purchased Sigma-Aldrich
Procedure: α-Chymotrypsin assays were performed in 50 mM Tris buffer pH 7.5 with 0.01% Triton-X. Inhibitor and 0.001 mg/mL enzyme were incubated at their final concentration for 10 min before the reaction was initiated by the addition of 200 μM N-succinyl-Ala-Ala-Pro-Phe p-nitroanilide and monitored at 410 nm.
(§4) To assess the selectivity of the new molecules we determined Ki values against three common serine proteases, Trypsin, Elastase and α-Chymotrypsin, as well as that of a class A β-lactamase, CTX-M-9 (Table 10) (Pouvreau L, et al. (1998), FEBS Lett 423:167-172; Del Mar E G, et al. (1980), Biochemistry 19:468-472; Rodriguez-Martinez J A, et al. (2009), Biotechnol Lett 31:883-887; Chen Y, et al. (2005), J Mol Biol 348:349-362).

[6] = tested on: E. cloacae overproducing chromosomally-mediated class C β-lactamase; assay: MIC of third-generation cephalosporins alone and with compounds 4 or 9 (Table 3); format: cell-based, Enterobacter cloacae; conditions: ratio 1:1
From the text: as §1, §2

[7] = tested on: K. pneumoniae producing the plasmid-mediated class C β-lactamase DHA-1; assay: as above; format: cell-based, Klebsiella pneumoniae; conditions: ratio 1:1
From the text: as §1, §2

[8] = tested on: K. pneumoniae and E. cloacae strains in which AmpC expression is inducible; assay: β-lactamase induction experiments (disk potentiation of ceftazidime); format: cell-based, Klebsiella pneumoniae; Enterobacter cloacae; conditions: 64 μg of compounds or 32 μg cefoxitin per disk, ceftazidime disk 30 μg
From the text: as §3
A traditional β-lactam resistance mechanism is the upregulation of β-lactamase-encoding gene transcription caused by β-lactams such as cefoxitin and the β-lactamase inhibitor clavulanate. To test the role of compounds on the induction of AmpC expression, we investigated their ability to potentiate the action of the β-lactam ceftazidime. We compared the potentiation effect of compounds with that of cefoxitin (FIGS. 9B and 9C). Agar plates were inoculated with K. pneumoniae and E. cloacae strains in which AmpC expression is inducible. A ceftazidime-containing disk and a disk containing the inhibitors (cefoxitin or compounds 4 and 9) were placed on each plate. As ceftazidime diffuses from disks into the agar, a clear zone is created around the ceftazidime-containing disk, indicating where bacteria are unable to grow. The shape of this halo in the vicinity of the inhibitor-containing disk indicated the effect of these compounds on the induction of AmpC. The inhibition halos normally surrounding ceftazidime were substantially diminished in the regions nearest to the cefoxitin disk.
For the β-lactamase induction experiments, plates of Mueller Hinton agar were inoculated with two clinical strains (E. cloacae and K. pneumoniae) in which production of AmpC-type enzyme is inducible by β-lactam antibiotics. Inhibitors were added to blank disks, and the final content of inhibitor per disk was 64 μg of compounds and 32 μg cefoxitin. Disks of ceftazidime contained 30 μg of antibiotic.

CTX-M-9 β-lactamase = CTX-M-9 β-lactamase (Escherichia coli, UniProt Q9L5C8); assay: biochemical; format: biochemical
Sequence of CTX-M-9 β-lactamase (Q9L5C8 29-291): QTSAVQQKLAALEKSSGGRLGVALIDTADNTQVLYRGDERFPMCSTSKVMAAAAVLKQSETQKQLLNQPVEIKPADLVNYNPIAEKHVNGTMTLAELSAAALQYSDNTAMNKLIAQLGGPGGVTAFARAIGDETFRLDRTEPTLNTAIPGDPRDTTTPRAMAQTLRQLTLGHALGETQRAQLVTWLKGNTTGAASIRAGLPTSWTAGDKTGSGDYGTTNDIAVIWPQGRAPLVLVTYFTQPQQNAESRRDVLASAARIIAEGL
Procedure: Reactions were initiated by the addition of 0.3 nM enzyme and monitored at 405 nm.
as §4

[9] = tested on: P. aeruginosa overproducing chromosomally-mediated class C β-lactamase; assay: MIC of third-generation cephalosporins alone and with compounds 4 or 9 (Table 3); format: cell-based, Pseudomonas aeruginosa; conditions: ratio 1:1
From the text: as §1, §2

AmpC β-lactamase [10] = biological target: T2, AmpC β-lactamase (Escherichia coli, UniProt P00811); format: biochemical; conditions: enzyme incubation and dilution experiments
T2 construct: made in house
T2 sequence (P00811 20-377): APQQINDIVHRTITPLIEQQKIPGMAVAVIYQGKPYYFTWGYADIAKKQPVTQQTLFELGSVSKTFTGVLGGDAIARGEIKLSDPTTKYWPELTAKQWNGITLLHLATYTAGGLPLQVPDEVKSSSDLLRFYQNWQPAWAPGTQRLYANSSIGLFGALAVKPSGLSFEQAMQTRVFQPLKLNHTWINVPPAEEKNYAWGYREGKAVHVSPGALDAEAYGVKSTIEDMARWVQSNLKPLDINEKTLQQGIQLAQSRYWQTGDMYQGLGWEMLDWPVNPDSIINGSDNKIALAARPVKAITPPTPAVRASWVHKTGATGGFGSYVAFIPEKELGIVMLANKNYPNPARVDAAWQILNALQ

Elastase = biological target: T3, Elastase (Sus scrofa, UniProt P00772); assay: Elastase inhibition; format: biochemical
T3 construct: IC50 (Estimated from single concentration measurement); Ki
T3 sequence (P00772 27-266): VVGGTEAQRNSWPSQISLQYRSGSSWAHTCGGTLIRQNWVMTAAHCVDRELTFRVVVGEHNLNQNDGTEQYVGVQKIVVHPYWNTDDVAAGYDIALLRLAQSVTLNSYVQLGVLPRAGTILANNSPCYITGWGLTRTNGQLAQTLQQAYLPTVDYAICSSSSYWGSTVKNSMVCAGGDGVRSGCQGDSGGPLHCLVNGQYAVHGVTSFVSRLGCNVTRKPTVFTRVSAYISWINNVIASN
From the text: as §4

Trypsin = biological target: T4, Trypsin (UniProt P00760); assay: Trypsin inhibition; format: biochemical
T4 construct: IC50 (Estimated from single concentration measurement); Ki
T4 sequence (P00760 1-246): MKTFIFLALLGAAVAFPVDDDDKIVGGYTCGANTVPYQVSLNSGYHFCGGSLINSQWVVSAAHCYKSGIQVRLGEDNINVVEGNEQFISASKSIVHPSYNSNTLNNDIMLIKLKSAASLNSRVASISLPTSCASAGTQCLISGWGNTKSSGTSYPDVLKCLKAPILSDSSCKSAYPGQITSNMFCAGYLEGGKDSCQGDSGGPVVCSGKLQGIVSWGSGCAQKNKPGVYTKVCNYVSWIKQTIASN

AmpC β-lactamase [11] = biological target: T2, AmpC β-lactamase; assay: biochemical; format: biochemical
[12] = Table 8, read-out: Ki vs CTX-M-9
[13] = Table 4e, read-out: IC50 (Estimated from single concentration measurement)
[14] = Table 4f, read-out: IC50 (from multi- or single concentration measurements)
[15] = Table 4g, read-out: Ki (from multi- or single concentration measurements)

Sequence of cruzain (P25779 123-337 limits assumed): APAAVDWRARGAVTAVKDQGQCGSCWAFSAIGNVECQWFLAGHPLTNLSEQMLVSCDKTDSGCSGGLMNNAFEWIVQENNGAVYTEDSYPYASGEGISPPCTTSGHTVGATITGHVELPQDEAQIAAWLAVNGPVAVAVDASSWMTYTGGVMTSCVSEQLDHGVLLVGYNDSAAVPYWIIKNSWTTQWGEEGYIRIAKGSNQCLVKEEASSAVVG

Compound	inhibition at 100 µM (cruzain)	MIC of cefotaxime with compound [1] [µg/mL]	MIC of ceftazidime with compound [1] [µg/mL]	inhibition of bacterial growth in combination with ceftazidime [2]	activity on bacteria growth, compound alone [2]	MIC of cefotaxime with compound [3] [µg/mL]	MIC of ceftazidime with compound [3] [µg/mL]	MIC of cefotaxime with compound [4] [µg/mL]	MIC of ceftazidime with compound [4] [µg/mL]	inhibition at 100 µM [5]	MIC of cefotaxime with compound [6] [µg/mL]	MIC of ceftazidime with compound [6] [µg/mL]	MIC of cefotaxime with compound [7] [µg/mL]	MIC of ceftazidime with compound [7] [µg/mL]	effect on the ceftazidime inhibition halo (induction of AmpC) [8]	IC50 (CTX-M-9 β-lactamase; Table 4a, read-out: IC50) [µM]	MIC of cefotaxime with compound [9] [µg/mL]	MIC of ceftazidime with compound [9] [µg/mL]	Ki (CTX-M-9 β-lactamase; [12]) [µM]	other results
O=S(=O)(Cc1ccccc1)NCB(O)O [Compound 4, Pinacol(phenylmethanesulfonylamino)methaneboronate]	no measurable inhibition	2	4	large inhibition halo	little or no detectable activity	1	4	16	2	no measurable inhibition	4	4	4	8	synergic picture	6.87	16	4		IC50 (cruzain): > 500 µM; IC50 [5]: > 500 µM; Ki (CTX-M-9 β-lactamase): 2.5 µM; Ki (CTX-M-9 β-lactamase; read-out: Ki corresponding to the IC50 values): 2.53 µM
O=C(O)c1ccc(CS(=O)(=O)NCB(O)O)cc1 [Compound 9, [(4-carboxyphenyl)methanesulfonylamino]methaneboronic acid]	no measurable inhibition	4	4	large inhibition halo	little or no detectable activity	2	8	8	1	no measurable inhibition	8	4	2	4	synergic picture	1.5	32	8	0.55	IC50 (cruzain; read-out: IC50): > 500 µM; IC50 ([5]; read-out: IC50): > 500 µM; time dependence of inhibition (incubation effect, off-rate) (AmpC β-lactamase [10]): no measurable time dependence
Pinacol(chloromethanesulfonylamino)methaneboronate [CR70]																			5.9	Percentage inhibition with 100 μM inhibitor (Elastase): 90; Percentage activity with 100 μM inhibitor (Elastase; Table 4b, 100 μM inhibitor): 10; potency estimated from few doses (Elastase; [13]): 11 µM; Percentage activity with 100 μM inhibitor ([5]; Table 4b, 100 μM inhibitor): 90; Percentage inhibition with 100 μM inhibitor ([5]; Table 4c, 100 μM inhibitor): 10; potency estimated from few doses [5, 13]: 900 µM; Percentage activity with 100 μM inhibitor (Trypsin; Table 4b, 100 μM inhibitor): 97; Percentage inhibition with 100 μM inhibitor (Trypsin; Table 4c, 100 μM inhibitor): 3; potency estimated from few doses (Trypsin; [13]): 3230 µM; potency estimated from few doses (CTX-M-9 β-lactamase; [13]): 16 µM; IC50 (CTX-M-9 β-lactamase; [14]): 16 µM; Ki (CTX-M-9 β-lactamase; [15]): 5.9 µM; Percentage inhibition with 16 μM inhibitor (CTX-M-9 β-lactamase; Table 4d, 16 μM inhibitor): 50; IC50 (AmpC β-lactamase [11]; [14]): 1.55 µM; Ki (AmpC β-lactamase [11]; [15]): 0.3 µM; Ki (AmpC β-lactamase [11]; Table 7, read-out: Ki Vs AmpC): 0.31 µM; Ki (AmpC β-lactamase [11]; Table 8, read-out: Ki vs AmpC): 0.31 µM
